Laboratory results published in patent US20230057568A1, “COMPOUNDS FOR TREATING FAMILIAL DYSAUTONOMIA” (PTC THERAPEUTICS, INC., priority 2019, published 2023).

System: Elongator complex protein 1 (ELP1, also referred to as IKBKAP)
Test: IKBKAP-HTRF Assay
Format: cell-based, human
Conditions: FD patient-derived fibroblasts GM04589, 48 hours incubation; for EC2x for IKBKAP protein expression (concentration producing two times the amount of IKBKAP protein vs DMSO vehicle control): 7-point concentration curve; for MFI (maximum fold increase in IKBKAP protein abundance relative to the vehicle control): HTRF
Experimental: The assay is used for the quantitative determination of Elongator complex protein 1 (ELP1, also referred to as IKBKAP) concentration in cell lysates using the HTRF® (Homogeneous Time-Resolved Fluorescence) technology. IKBKAP is detected in a sandwich HTRF assay by use of an anti-IKAP antibody labeled with a donor and an anti-IKAP antibody labeled with an acceptor.
Cells were thawed and incubated in DMEM-10% FBS for 72 hours. Cells were trypsinized, counted, and re-suspended to a concentration of 50,000 cells/mL in DMEM-10% FBS. A 199 μL, aliquot of the cell suspensions were plated at 10,000 cells per well in a 96 well microtiter plate and incubated for 3 to 5 hours. […] Test compounds were serially diluted 3.16-fold in 100% DMSO to generate a 7-point concentration curve. A 1 μL aliquot of 200× compound solution was transferred to cell-containing wells, and cells were incubated for 48 hours in a cell culture incubator (37° C., 5% CO2, 100% relative humidity). Triplicate samples were set up for each compound concentration. After 48 hours, the supernatant was removed from the cells and 50 μL of the 1× LB4 lysis buffer, containing protease inhibitors, was added to the cells and incubated with shaking at room temperature for 1 hour. A 36 μL aliquot of this lysate was subsequently transferred to the 384-well plate containing 4 μL of the antibody solution (1:50 dilution of anti IKAP d2 and anti-IKAP K(9+8) in detection buffer). The 384-well plate was then centrifuged for 1 minute to bring the solutions to the bottom of the plate and incubated overnight at 4° C. Fluorescence for each well of the plate at 665 nm and 620 nm was measured was on the EnVision plate reader (Perkin Elmer). The AF for each sample is calculated by: […]
wherein Signal is the normalized fluorescence for each sample well and Blank is the average normalized average fluorescence for the Blank control wells.
The maximum fold increase (MFI) in IKBKAP protein abundance for compounds of Formula (I) or a form thereof relative to the vehicle control are provided in Table 1. MFI was calculated by dividing the AF value for each sample well by the sample AF for the vehicle control wells.
The EC2× for IKBKAP protein expression obtained from the 7-point concentration curve generated for each test compound according to the protocol in Biological Example 1 are also provided in Table 1. The term “EC2× for IKBKAP protein expression” is defined as the concentration of test compound that is effective in producing two times the amount of IKBKAP protein in a FD patient cell compared to the amount produced from the DMSO vehicle control.

SMILES | EC2x for IKBKAP protein expression (concentration producing two times the amount of IKBKAP protein vs DMSO vehicle control) | MFI (maximum fold increase in IKBKAP protein abundance relative to the vehicle control)
Cc1csc2c(NCc3ccncc3)nc(Cl)nc12 [Cpd 23, 2-chloro-7-methyl-N-[(pyridin-4-yl)methyl]thieno[3,2-d]pyrimidin-4-amine] | *** (between >0.02 μM and ≤0.5 μM) | ***** (>4.9)
Cc1ccc(CNc2nc(Cl)nc3c(C)c(C[C@H](C)N)sc23)o1 [Cpd 24, 6-[(2S)-2-aminopropyl]-2-chloro-7-methyl-N-[(5-methylfuran-2-yl)methyl]thieno[3,2-d]pyrimidin-4-amine] | *** (between >0.02 μM and ≤0.5 μM) | *** (between >2.9 and <3.9)
Cc1csc2c(NCc3ccco3)nc(C(F)(F)F)nc12 [Cpd 25, N-[(furan-2-yl)methyl]-7-methyl-2-(trifluoromethyl)thieno[3,2-d]pyrimidin-4-amine] | * (EC2×>1 μM) | * (MFI<1.9)
Cc1c(C[C@H](C)N)sc2c(NCc3ccco3)nc(C(F)(F)F)nc12 [Cpd 26, 6-[(2S)-2-aminopropyl]-N-[(furan-2-yl)methyl]-7-methyl-2-(trifluoromethyl)thieno[3,2-d]pyrimidin-4-amine] | *** (between >0.02 μM and ≤0.5 μM) | **** (between >3.9 and <4.9)
Cc1csc(CNc2nc(Cl)nc3c(C)c(C[C@H](C)N)sc23)n1 [Cpd 27, 6-[(2S)-2-aminopropyl]-2-chloro-7-methyl-N-[(4-methyl-1,3-thiazol-2-yl)methyl]thieno[3,2-d]pyrimidin-4-amine] | ** (between >0.5 μL and ≤1 μM) | *** (between >2.9 and <3.9)
Cc1c(C[C@H](C)N)sc2c(NCc3cccs3)nc(Cl)nc12 [Cpd 28, 6-[(2S)-2-aminopropyl]-2-chloro-7-methyl-N-[(thiophen-2-yl)methyl]thieno[3,2-d]pyrimidin-4-amine] | ***** (<0.005 μM) | ***** (>4.9)
Cc1c(C[C@H](C)N)sc2c(NCc3nccs3)nc(Cl)nc12 [Cpd 29, 6-[(2S)-2-aminopropyl]-2-chloro-7-methyl-N-[(1,3-thiazol-2-yl)methyl]thieno[3,2-d]pyrimidin-4-amine] | ***** (<0.005 μM) | ***** (>4.9)
Cc1ccoc1CNc1nc(Cl)nc2c(C)c(C[C@H](C)N)sc12 [Cpd 30, 6-[(2S)-2-aminopropyl]-2-chloro-7-methyl-N-[(3-methylfuran-2-yl)methyl]thieno[3,2-d]pyrimidin-4-amine] | *** (between >0.02 μM and ≤0.5 μM) | **** (between >3.9 and <4.9)
Cc1cnc(CNc2nc(Cl)nc3c(C)c(C[C@H](C)N)sc23)s1 [Cpd 31, 6-[(2S)-2-aminopropyl]-2-chloro-7-methyl-N-[(5-methyl-1,3-thiazol-2-yl)methyl]thieno[3,2-d]pyrimidin-4-amine] | *** (between >0.02 μM and ≤0.5 μM) | *** (between >2.9 and <3.9)
Cc1c(C[C@H](C)N)sc2c(NCc3cnccn3)nc(Cl)nc12 [Cpd 32, 6-[(2S)-2-aminopropyl]-2-chloro-7-methyl-N-[(pyrazin-2-yl)methyl]thieno[3,2-d]pyrimidin-4-amine] | *** (between >0.02 μM and ≤0.5 μM) | **** (between >3.9 and <4.9)
Cc1c(C[C@H](C)N)sc2c(NCc3ccc(F)s3)nc(Cl)nc12 [Cpd 33, 6-[(2S)-2-aminopropyl]-2-chloro-N-[(5-fluorothiophen-2-yl)methyl]-7-methylthieno[3,2-d]pyrimidin-4-amine] | **** (between >0.005 μM and ≤0.02 μM) | **** (between >3.9 and <4.9)
Cc1c(C[C@H](C)N)sc2c(NCc3ccccc3)nc(Cl)nc12 [Cpd 34, 6-[(2S)-2-aminopropyl]-N-benzyl-2-chloro-7-methylthieno[3,2-d]pyrimidin-4-amine] | ***** (<0.005 μM) | ***** (>4.9)
Cc1c(C[C@H](C)N)sc2c(NCc3ccncc3F)nc(Cl)nc12 [Cpd 35, 6-[(2S)-2-aminopropyl]-2-chloro-N-[(3-fluoropyridin-4-yl)methyl]-7-methylthieno[3,2-d]pyrimidin-4-amine] | ***** (<0.005 μM) | ***** (>4.9)
C[C@H](N)Cc1sc2c(NCc3ccco3)nc(Cl)nc2c1C1CC1 [Cpd 36, 6-[(2S)-2-aminopropyl]-2-chloro-7-cyclopropyl-N-[(furan-2-yl)methyl]thieno[3,2-d]pyrimidin-4-amine] | **** (between >0.005 μM and ≤0.02 μM) | ***** (>4.9)
CC[C@H](N)Cc1sc2c(NCc3cccs3)nc(Cl)nc2c1C [Cpd 37, 6-[(2S)-2-aminobutyl]-2-chloro-7-methyl-N-[(thiophen-2-yl)methyl]thieno[3,2-d]pyrimidin-4-amine] | ***** (<0.005 μM) | ***** (>4.9)
Cc1c(C[C@H](C)N)sc2c(NCc3ccco3)nc(Br)nc12 [Cpd 38, 6-[(2S)-2-aminopropyl]-2-bromo-N-[(furan-2-yl)methyl]-7-methylthieno[3,2-d]pyrimidin-4-amine] | ***** (<0.005 μM) | ***** (>4.9)
Cc1c(C[C@H](C)N)sc2c(NCc3ccno3)nc(Cl)nc12 [Cpd 39, 6-[(2S)-2-aminopropyl]-2-chloro-7-methyl-N-[(1,2-oxazol-5-yl)methyl]thieno[3,2-d]pyrimidin-4-amine] | *** (between >0.02 μM and ≤0.5 μM) | ***** (>4.9)
C[C@H](N)Cc1sc2c(NCc3ccco3)nc(Cl)nc2c1Br [Cpd 40, 6-[(2S)-2-aminopropyl]-7-bromo-2-chloro-N-[(furan-2-yl)methyl]thieno[3,2-d]pyrimidin-4-amine] | ***** (<0.005 μM) | ***** (>4.9)
Cc1c(C2CNC2)sc2c(NCc3ccco3)nc(Cl)nc12 [Cpd 41, 6-(azetidin-3-yl)-2-chloro-N-[(furan-2-yl)methyl]-7-methylthieno[3,2-d]pyrimidin-4-amine] | *** (between >0.02 μM and ≤0.5 μM) | ** (between >1.9 and <2.9)
Clc1nc(NCc2ccco2)c2scc(Br)c2n1 [Cpd 42, 7-bromo-2-chloro-N-[(furan-2-yl)methyl]thieno[3,2-d]pyrimidin-4-amine] | *** (between >0.02 μM and ≤0.5 μM) | ***** (>4.9)
Clc1nc(NCc2ccncc2)c2scc(Br)c2n1 [Cpd 43, 7-bromo-2-chloro-N-[(pyridin-4-yl)methyl]thieno[3,2-d]pyrimidin-4-amine] | *** (between >0.02 μM and ≤0.5 μM) | **** (between >3.9 and <4.9)
